This is an account of results in BindingDB's records for patent US20240376090 (Arena Pharmaceuticals, 2024).

In this test the target is 5-hydroxytryptamine receptor 2A (Homo sapiens, UniProt P28223). The experiment in a line: Radioligand Binding Assay Protocol. The procedure:
Competition binding experiments consisted of addition of 5 μL of serially diluted test compound, 50 μL of radioligand stock diluted in Assay Buffer (20 mM HEPES, pH 7.4, 10 mM MgCl2), and 145 μL of diluted membrane expressing the receptor of interest to 96-well microtiter plates, which were then incubated for one hour at room temperature. Assay incubations were terminated by rapid filtration through Perkin Elmer GF/C filtration plates under vacuum pressure using a 96-well Packard filtration apparatus, followed by washing the filter plates several times with ice cold Assay Buffer. Plates were then dried at 45° C. for a minimum of four hours. Finally, 25 μL of BetaScint scintillation cocktail was added to each well and the plates were counted in a Packard TopCount scintillation counter. In each competition study, test compounds were assayed at 10 concentrations with three replicates at each test concentration.

Sequence of 5-hydroxytryptamine receptor 2A (P28223 whole entry): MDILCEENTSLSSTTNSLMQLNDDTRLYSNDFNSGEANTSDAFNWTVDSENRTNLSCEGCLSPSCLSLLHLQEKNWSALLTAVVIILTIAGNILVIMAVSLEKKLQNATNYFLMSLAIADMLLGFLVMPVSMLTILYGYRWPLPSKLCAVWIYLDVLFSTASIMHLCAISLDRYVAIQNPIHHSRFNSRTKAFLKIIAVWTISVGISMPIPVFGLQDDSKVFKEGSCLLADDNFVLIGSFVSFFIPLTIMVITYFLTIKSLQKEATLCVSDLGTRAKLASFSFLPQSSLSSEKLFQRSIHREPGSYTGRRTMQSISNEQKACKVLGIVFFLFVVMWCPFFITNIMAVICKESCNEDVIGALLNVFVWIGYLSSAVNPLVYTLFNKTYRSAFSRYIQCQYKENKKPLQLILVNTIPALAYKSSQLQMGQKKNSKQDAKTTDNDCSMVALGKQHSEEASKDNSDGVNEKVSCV

As to `CC/C(=C(/C)ON)c1cc(NC(=O)C[C@H]2CCOC2)ccc1OC[C@H]1CCCCN1` [US20240376090, Compound 202], the Ki was 9.81 nM.
